The NIST ThermoML archive (doi:10.1016/j.jct.2006.07.022)

Assay: xn = mol fraction of the nth substance listed
Conditions: 101 kPa, Liquid

CN(C)C=O [dimethylformamide] + Cc1ccccc1
Conditions	mass density [kg/m3]
293.15 K, x2 = 0	948.58
293.15 K, x2 = 0.0587	943.21
293.15 K, x2 = 0.0924	940.15
293.15 K, x2 = 0.1596	934.15
293.15 K, x2 = 0.2106	929.65
293.15 K, x2 = 0.2706	924.43
293.15 K, x2 = 0.3202	920.16
293.15 K, x2 = 0.3823	914.89
293.15 K, x2 = 0.4504	909.2
293.15 K, x2 = 0.5171	903.73
293.15 K, x2 = 0.5636	899.97
293.15 K, x2 = 0.7212	887.54
293.15 K, x2 = 0.7647	884.19
293.15 K, x2 = 0.8114	880.65
293.15 K, x2 = 0.8715	876.16
293.15 K, x2 = 0.9412	871.04
303.15 K, x2 = 0	939.46
303.15 K, x2 = 0.0451	935.32
303.15 K, x2 = 0.1012	930.23
303.15 K, x2 = 0.1674	924.31
303.15 K, x2 = 0.2151	920.11
303.15 K, x2 = 0.2855	913.98
303.15 K, x2 = 0.3484	908.59
303.15 K, x2 = 0.4188	902.65
303.15 K, x2 = 0.4876	896.96
303.15 K, x2 = 0.5508	891.8
303.15 K, x2 = 0.6134	886.77
303.15 K, x2 = 0.6745	881.95
303.15 K, x2 = 0.7512	876
303.15 K, x2 = 0.8121	871.36
303.15 K, x2 = 0.8614	867.66
303.15 K, x2 = 0.9318	862.47
313.15 K, x2 = 0	930.12
313.15 K, x2 = 0.051	925.45
313.15 K, x2 = 0.1112	920.02
313.15 K, x2 = 0.1984	912.27
313.15 K, x2 = 0.2511	907.67
313.15 K, x2 = 0.3147	902.18
313.15 K, x2 = 0.3784	896.76
313.15 K, x2 = 0.4322	892.26
313.15 K, x2 = 0.5053	886.23
313.15 K, x2 = 0.5721	880.8
313.15 K, x2 = 0.6427	875.17
313.15 K, x2 = 0.7077	870.09
313.15 K, x2 = 0.7812	864.43
313.15 K, x2 = 0.8419	859.84
313.15 K, x2 = 0.8932	856.01
313.15 K, x2 = 0.9588	851.2
323.15 K, x2 = 0	920.55
323.15 K, x2 = 0.044	916.54
323.15 K, x2 = 0.1062	910.94
323.15 K, x2 = 0.1721	905.1
323.15 K, x2 = 0.2314	899.91
323.15 K, x2 = 0.2985	894.12
323.15 K, x2 = 0.3647	888.5
323.15 K, x2 = 0.4215	883.74
323.15 K, x2 = 0.4874	878.3
323.15 K, x2 = 0.5484	873.34
323.15 K, x2 = 0.6014	869.09
323.15 K, x2 = 0.6647	864.08
323.15 K, x2 = 0.7314	858.9
323.15 K, x2 = 0.7951	854.03
323.15 K, x2 = 0.8654	848.74
323.15 K, x2 = 0.9321	843.83
333.15 K, x2 = 0	910.75
333.15 K, x2 = 0.0512	906.14
333.15 K, x2 = 0.112	900.72
333.15 K, x2 = 0.1784	894.89
333.15 K, x2 = 0.2351	889.98
333.15 K, x2 = 0.2985	884.55
333.15 K, x2 = 0.3514	880.08
333.15 K, x2 = 0.4122	875
333.15 K, x2 = 0.4841	869.09
333.15 K, x2 = 0.5451	864.14
333.15 K, x2 = 0.6015	859.64
333.15 K, x2 = 0.6641	854.71
333.15 K, x2 = 0.7321	849.44
333.15 K, x2 = 0.7951	844.64
333.15 K, x2 = 0.8621	839.62
333.15 K, x2 = 0.9245	835.02
343.15 K, x2 = 0	900.73
343.15 K, x2 = 0.0632	895.11
343.15 K, x2 = 0.1201	890.11
343.15 K, x2 = 0.1854	884.45
343.15 K, x2 = 0.2554	878.46
343.15 K, x2 = 0.3114	873.73
343.15 K, x2 = 0.3784	868.14
343.15 K, x2 = 0.4552	861.82
343.15 K, x2 = 0.5114	857.28
343.15 K, x2 = 0.5662	852.9
343.15 K, x2 = 0.6212	848.55
343.15 K, x2 = 0.6812	843.88
343.15 K, x2 = 0.7499	838.61
343.15 K, x2 = 0.8021	834.67
343.15 K, x2 = 0.8654	829.95
343.15 K, x2 = 0.9421	824.34
353.15 K, x2 = 0	890.48
353.15 K, x2 = 0.0451	886.53
353.15 K, x2 = 0.1023	881.55
353.15 K, x2 = 0.1654	876.13
353.15 K, x2 = 0.2215	871.36
353.15 K, x2 = 0.2865	865.91
353.15 K, x2 = 0.3412	861.36
353.15 K, x2 = 0.4012	856.44
353.15 K, x2 = 0.4687	850.98
353.15 K, x2 = 0.5214	846.76
353.15 K, x2 = 0.5841	841.82
353.15 K, x2 = 0.6474	836.89
353.15 K, x2 = 0.7142	831.77
353.15 K, x2 = 0.7784	826.93
353.15 K, x2 = 0.8451	821.96
353.15 K, x2 = 0.9012	817.86
